Measured values as given in patent publication US20100009956A1, “NOVEL SUBSTITUTED PYRIMIDINES AS CYSTEINE PROTEASE INHIBITORS” (Glaxo Group Limited , a corporation, priority 2006, published 2010).
Where a name gives a salt, the structure may show the parent alone. Read-outs that look alike come from different tables or passages of the source.

Legend:
[1] = test system: Plasmodium falciparum parasite; assay: Whole cell assay (assay 2); assay type: cell-based
Text: Assay 2) Determination of Whole Cell Activity Against the Plasmodium falciparum Parasite
Compounds can be evaluated for whole cell actvity against the Plasmodium falciparum parasite according to the procedure described in Sijwali S. and Rosenthal P. J., (2004) Proceedings of the National Academy of Sciences of the United States of America (PNAS) 101 (13), 4384-4389 (see in particular “Measurement of Parasite Growth rates and Inhibitor Sensitivity” on page 4385); IC50 values can be calculated as described in Singh A. and Rosenthal P. J., (2001) Antimicrobial Agents and Chemotherapy 45(3), 949-951 (see in particular page 950, first column); synchronised parasites can be prepared as described in Divo A. A. et al., (1985) Protozool. 32, 59-64.

Cathepsin S = Cathepsin S (Homo sapiens, UniProt P25774); assay: Cathepsin S enzymatic assay (assay 1); assay type: biochemical; conditions: human recombinant enzyme, KQKLR-AMC substrate, pH 6.5
Procedure: Assay 1) Determination of Falcipain-2, Falcipain-3, Vivapain-2, Cathepsin K Cathepsin S, Cathepsin L, and Cathepsin B Proteolytic Catalytic Activity
Assays for Falcipain-2, Falcipain-3, and Vivapain-2 are carried out with parasitic recombinant enzymes. Cathepsins K, S, L, and B are carried out with human recombinant enzymes. Standard assay conditions for the determination of kinetic constants used a fluorogenic peptide substrate, typically H-D-VLR-AFC (Falcipain-2, Falcipain-3, Vivapain-2), Z-FR-AFC (Cathepsin K, L, B), or KQKLR-AMC (Cathepsin S) and are determined in 100 mM sodium acetate, pH 5.5, containing 10 mM DTT and 0.5 mM CHAPS (Falcipain-2, Falcipain-3, Vivapain-2), and 100 mM sodium acetate, pH 5.5, containing 5 mM L-cysteine, 1 mM CHAPS and 5 mM EDTA (Cathepsin K, L, B), or 50 mM MES, pH 6.5, containing 0.5 mM CHAPS, 10 mM L-CYS, 5 mM EDTA (Cathepsin S). Stock substrate solutions are prepared at 20 mM in DMSO. The activity assays contained 30 uM substrate (Falcipain-2, Falcipain-3, Vivapain-2), 20 uM substrate (Cathepsin K), 25 uM substrate (Cathepsin B), 5 uM substrate (Cathepsin L), and 30 uM substrate (Cathepsin S). All assays contained 1% DMSO. […] All assays are conducted at ambient temperature as end point assays being quenched after 60 minutes with the exception of Cathepsin S at 90 minutes, with 16.6 uM E-64 in 1% DMSO. Product formation (AFC or AMC) is determined from fluorescence (excitation at 405 nm; emission at 530 nm, AFC, or excitation at 360 nm; emission at 460 nm, AMC) monitored with a LJL Aquest (Molecular Devices) fluorescent plate reader. In the case of kinetic reads (used in mechanism of action studies), the reaction is not quenched but is read in the plate reader every 3 minutes for approximately 90 minutes. In addition, the mechanism of action studies for Falcipain-2 utilize Z-LR-AMC as the substrate. Product formation is determined from the fluorescence of AMC, measured with a LJL Acquest (Molecular Devices) fluorescent plate reader (excitation at 360 nm; emission at 460 nm).
Potential inhibitors are evaluated using the quenched read (endpoint) method. Assays are carried out in the presence of variable concentrations of test compound. Reactions are initiated by addition of enzyme and substrate to wells containing inhibitor stamped in 100% DMSO. For endpoint assays, the reaction is quenched with the addition of E64. Dose response data is fit to an IC50 curve with preset fitting tools according to equation 1:
y=a+(b−a)/(1+(10^x/10^c)^d) (1)
where y is the response at a particular inhibitor concentration x, a is the minimum response value, b is the maximum response value, c is the IC50, and d is the slope of the IC50 curve. Assuming the compound is a competitive inhibitor, the apparent KI can be calculated from IC50, as shown in equation 2: […]

Cathepsin K = target: T1, Cathepsin K (Homo sapiens, UniProt P43235); assay: Cathepsin K enzymatic assay (assay 1); assay type: biochemical; conditions: human recombinant enzyme, Z-FR-AFC substrate, pH 5.5
T1 sequence (P43235 115-329): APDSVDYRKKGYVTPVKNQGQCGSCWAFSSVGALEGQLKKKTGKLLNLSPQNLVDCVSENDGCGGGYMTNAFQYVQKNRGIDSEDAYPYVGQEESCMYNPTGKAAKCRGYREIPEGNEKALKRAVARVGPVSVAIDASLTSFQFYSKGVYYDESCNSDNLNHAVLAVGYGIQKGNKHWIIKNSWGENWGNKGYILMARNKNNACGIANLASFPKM
Outline: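 Human recombinant cathepsin K was assayed with the fluorogenic substrate Z-FR-AFC at 20 uM in 100 mM sodium acetate, pH 5.5, with 5 mM L-cysteine, 1 mM CHAPS, 5 mM EDTA and 1% DMSO. Enzyme plus substrate was added to wells holding inhibitor in DMSO. After 60 minutes at ambient temperature, 16.6 uM E-64 quenched the reaction. AFC fluorescence (excitation 405 nm, emission 530 nm) was read, and IC50 came from a four-parameter dose-response fit.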

Falcipain-3 = Falcipain-3 (Plasmodium falciparum, UniProt Q8IIL0); assay: Falcipain-3 enzymatic assay (assay 1); assay type: biochemical
Outline: (§1)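 Recombinant parasite enzyme with 30 uM H-D-VLR-AFC in 100 mM sodium acetate pH 5.5, 10 mM DTT, 0.5 mM CHAPS, 1% DMSO, ambient temperature. Endpoint after 60 minutes, quenched with 16.6 uM E-64; AFC fluorescence (ex 405/em 530). IC50 from four-parameter fit, apparent KI assuming competitive inhibition.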

Falcipain-2 = Falcipain-2 (Plasmodium falciparum, UniProt Q8I6U4); assay: Falcipain-2 enzymatic assay (assay 1); assay type: biochemical
Outline: as §1

[2] = parasitic recombinant enzyme, H-D-VLR-AFC substrate, pH 5.5, endpoint read, read-out: Falcipain-3 IC50
[3] = parasitic recombinant enzyme, H-D-VLR-AFC substrate, pH 5.5, endpoint read, read-out: Falcipain-2 IC50

Chain of Falcipain-3 (Q8IIL0 243-492): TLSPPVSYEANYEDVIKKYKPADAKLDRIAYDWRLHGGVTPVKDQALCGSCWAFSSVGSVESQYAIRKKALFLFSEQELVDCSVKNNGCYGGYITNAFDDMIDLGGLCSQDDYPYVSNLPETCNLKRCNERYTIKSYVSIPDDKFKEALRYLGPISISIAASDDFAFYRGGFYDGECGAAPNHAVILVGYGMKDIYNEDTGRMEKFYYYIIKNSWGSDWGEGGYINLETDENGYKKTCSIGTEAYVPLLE
Chain of Cathepsin S (P25774 115-331): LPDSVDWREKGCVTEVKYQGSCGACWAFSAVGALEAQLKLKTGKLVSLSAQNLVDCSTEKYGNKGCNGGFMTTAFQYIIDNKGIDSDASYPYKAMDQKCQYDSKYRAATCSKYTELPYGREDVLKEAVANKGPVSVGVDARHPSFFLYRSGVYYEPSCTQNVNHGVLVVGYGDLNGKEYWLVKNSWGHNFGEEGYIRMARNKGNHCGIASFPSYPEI
Chain of Falcipain-2 (Q8I6U4 244-484): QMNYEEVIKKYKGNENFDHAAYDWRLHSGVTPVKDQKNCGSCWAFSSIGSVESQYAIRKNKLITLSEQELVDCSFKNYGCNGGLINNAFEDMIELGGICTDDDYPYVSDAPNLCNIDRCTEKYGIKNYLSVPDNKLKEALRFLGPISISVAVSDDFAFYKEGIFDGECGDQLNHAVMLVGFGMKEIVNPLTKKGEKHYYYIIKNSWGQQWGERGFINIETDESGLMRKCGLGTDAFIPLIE

| Molecule | IC50 [1] [nM] | IC50 (Cathepsin S) [nM] | IC50 (Cathepsin K) [nM] | IC50 (Falcipain-3; [2]) [nM] | IC50 ([1]; Plasmodium falciparum) [nM] | IC50 (Falcipain-2) [nM] | IC50 (Falcipain-3) [nM] | IC50 (Falcipain-2; [3]) [nM] |
| --- | --- | --- | --- | --- | --- | --- | --- | --- |
| CN1CCN(Cc2ccc(C(=O)NN(c3nc(C#N)ncc3Br)C3CCCC3)cc2)CC1 [Example 1A, N′-(5-bromo-2-cyano-4-pyrimidinyl)-N′-cyclopentyl-4-[(4-methyl-1-piperazinyl)methyl]benzohydrazide] | 2.5 to 15 | < 1000 | – | – | – | – | – | – |
| CN1CCN(C2CCN(Cc3ccc(C(=O)NN(c4nc(C#N)ncc4Br)C4CCOCC4)cc3)CC2)CC1 [Example 29, N′-(5—Bromo-2-cyano-4-pyrimidinyl)-4-{[4-(4-methyl-1-piperazinyl)-1-piperidinyl]methyl}-N′-(tetrahydro-2H-pyran-4-yl)benzohydrazide trifluoroacetate] | – | – | < 17 | 2.5 to 15 | 2.5 to 15 | < 1 | – | – |
| CN1CCN(C2CCN(Cc3ccc(C(=O)NN(c4nc(C#N)ncc4Cl)C4CCOCC4)cc3)CC2)CC1 [Example 34, N′-(5-Chloro-2-cyano-4-pyrimidinyl)-4-{[4-(4-methyl-1-piperazinyl)-1-piperidinyl]methyl}-N′-(tetrahydro-2H-pyran-4-yl)benzohydrazide trifluoroacetate] | – | – | < 17 | – | 15 to 150 | 1 to 2.5 | 2.5 to 15 | – |
| CN1CCN(Cc2ccc(-c3ccc(C(=O)NN(c4nc(C#N)ncc4Br)C4CCCCC4)cn3)cc2)CC1 [Example 44, N′-(5-bromo-2-cyano-4-pyrimidinyl)-N′-cyclohexyl-6-{4-[(4-methyl-1-piperazinyl)methyl]phenyl}-3-pyridinecarbohydrazide trifluoroacetate] | – | < 200 | < 1.5 | – | – | < 1 | 2.5 to 15 | – |
| CN1CCN(Cc2ccc(-c3ccc(C(=O)NN(c4nc(C#N)ncc4Br)C4CCCC4)cn3)cc2)CC1 [Example 46, N′-(5-bromo-2-cyano-4-pyrimidinyl)-N′-cyclopentyl-6-{4-[(4-methyl-1-piperazinyl)methyl]phenyl}-3-pyridinecarbohydrazide trifluoroacetate] | – | < 200 | < 1.5 | – | – | < 1 | 15 to 150 | – |
| CN1CCN(Cc2cccc(-c3cncc(C(=O)NN(c4nc(C#N)ncc4Br)C4CCCCC4)c3)c2)CC1 [Example 47, N′-(5-bromo-2-cyano-4-pyrimidinyl)-N′-cyclohexyl-5-{3-[(4-methyl-1-piperazinyl)methyl]phenyl}-3-pyridinecarbohydrazide trifluoroacetate] | – | < 200 | < 1.5 | – | – | < 1 | 2.5 to 15 | – |
| CC(=O)N1CCC(N(NC(=O)c2ccc(CN3CCC(C(=O)N4CCN(C)CC4)CC3)cc2)c2nc(C#N)ncc2Br)CC1 [Example 49, N′-(1-acetyl-4-piperidinyl)-N′-(5-bromo-2-cyano-4-pyrimidinyl)-4-({4-[(4-methyl-1-piperazinyl)carbonyl]-1-piperidinyl}methyl)benzohydrazide trifluoroacetate] | – | < 200 | < 17 | – | – | < 1 | 15 to 150 | – |
| CN1CCN(Cc2ccc(C(=O)NN(c3nc(C#N)ncc3Cl)C3CCCC3)cc2)CC1 [Example 50, N′-(5-chloro-2-cyano-4-pyrimidinyl)-N′-cyclopentyl-4-[(4-methyl-1-piperazinyl)methyl]benzohydrazide trifluoroacetate] | – | < 200 | < 1.5 | – | – | – | 15 to 150 | < 1 |
| CN1CCN(Cc2ccc(C(=O)NN(c3nc(C#N)ncc3Cl)C3CCCCC3)cc2)CC1 [Example 51, N′-(5-chloro-2-cyano-4-pyrimidinyl)-N′-cyclohexyl-4-[(4-methyl-1-piperazinyl)methyl]benzohydrazide trifluoroacetate] | – | < 200 | < 1.5 | – | – | 1 to 2.5 | 15 to 150 | – |
| CN1CCN(c2ncc(C(=O)NN(c3nc(C#N)ncc3Cl)C3CCCC3)s2)CC1 [Example 77, N′-(5-chloro-2-cyano-4-pyrimidinyl)-N′-cyclopentyl-2-(4-methyl-1-piperazinyl)-1,3-thiazole-5-carbohydrazide trifluoroacetate] | – | – | – | – | 15 to 150 | < 1 | 15 to 150 | – |
| CC(=O)N1CCC(N(NC(=O)OC(C)(C)C)c2nc(C#N)ncc2Br)CC1 [Example 79, 1,1-dimethylethyl 2-(1-acetyl-4-piperidinyl)-2-(5-bromo-2-cyano-4-pyrimidinyl)hydrazinecarboxylate] | – | < 200 | – | 15 to 150 | 15 to 150 | < 1 | – | – |
| CC(C)(C)N(CCO)Cc1ccc(C(=O)NN(c2nc(C#N)ncc2Cl)C2CCCC2)cc1 [Example 82, N′-(5-chloro-2-cyano-4-pyrimidinyl)-N′-cyclopentyl-4-{[(1,1-dimethylethyl)(2-hydroxyethyl)amino]methyl}benzohydrazide trifluoroacetate] | – | – | – | – | 2.5 to 15 | < 1 | 2.5 to 15 | – |
| CN(Cc1ccc(C(=O)NN(c2nc(C#N)ncc2Cl)C2CCCC2)cc1)CC1OCCO1 [Example 83, N′-(5-chloro-2-cyano-4-pyrimidinyl)-N′-cyclopentyl-4-{[(1,3-dioxolan-2-ylmethyl)(methyl)amino]methyl}benzohydrazide trifluoroacetate] | – | – | – | – | 150 to 250 | < 1 | 1 to 2.5 | – |
| CN(CCN(C)C(=O)OC(C)(C)C)Cc1ccc(C(=O)NN(c2nc(C#N)ncc2Cl)C2CCCC2)cc1 [Example 84, 1,1-dimethylethyl{2-[[(4-{[2-(5-chloro-2-cyano-4-pyrimidinyl)-2-cyclopentylhydrazino]carbonyl}phenyl)methyl](methyl)amino]ethyl}methylcarbamate trifluoroacetate] | – | < 1000 | – | – | 150 to 250 | < 1 | 2.5 to 15 | – |
| N′-(1-acetyl-4-piperidinyl)-N′-(5-bromo-2-cyano-4-pyrimidinyl)-4-[(4-methyl-1-piperazinyl)methyl]benzohydrazide trifluoroacetate [Example 37] | 15 to 150 | – | – | 15 to 150 | – | – | – | < 1 |
| N′-(5-chloro-2-cyano-4-pyrimidinyl)-N′-cyclopentyl-4-{[methyl(3-methylbutyl)amino]methyl}benzohydrazide trifluoroacetate [Example 63] | 2.5 to 15 | – | – | 2.5 to 15 | – | – | – | < 1 |
